From patent US10308595B2, “Albicidin derivatives, their use and synthesis” (priority 2013, dated 2019)
Like-named read-outs stand apart in the source and are kept apart here.

Assays:
Type in all cases: cell-based
[1] = test system: Staphylococcus aureus DSM 2569; assay: Test agar plates (disc diffusion), diameter of inhibition area; details: DSM2569, 18 h, test agar plates, active substance 1 mg/ml, "more than 1 cm and more than 2 cm" [sic], read-out: diameter of inhibition, Staphylococcus aureus DSM 2569
Experimental: (§1) The dry compounds were dissolved in DMSO (1 mg/ml) and the so obtained stock solution was diluted with sterilized Millipore water 1:10 and 1:100
(§2) 20 μl of cryo stock of each strain were inoculated to 20 ml of Mueller-Hinton medium and grown overnight at 30° C. or 37° C. on a vertical shaker with 160 rpm. The inoculum for the test was adjusted by the 0.5 McFarland Standard (OD625 from 0.08 to 0.1)
Staphylococcus aureus DSM 2569 [gram. Pos.] Medium: MHB/37° C.
(§3) Every plate is prepared by pouring 10 ml Mueller-Hinton agar into standard petri dishes (diam 94 mm). The so obtained Mueller-Hinton plates are overlayed with 4 ml Mueller-Hinton soft agar containing 100 μl suspension of the test strain.
(§4) After the soft agar turned solid, sterile susceptibility test discs were circular placed on the agar and on every test disc 10 μl compound was added. Each concentration is tested in triplicate. The agar dishes were incubated for 18 hours at a temperature of 30° C. or 37° C. Results are obtained by measuring the diameter of inhibition area around each test disc.

[2] = test system: Pseudomonas aeruginosa DSM1117; assay: as above; details: DSM1117, 18 h, read-out: diameter of inhibition, Pseudomonas aeruginosa DSM1117
Experimental: as §1, §2
Pseudomonas aeruginosa DSM1117 [gram. Neg.] Medium: MHB/37° C.
as §3, §4

Escherichia coli DH5α = assay: as above; details: 18 h, read-out: diameter of inhibition, Escherichia coli DH5α
Experimental: as §1, §2
Escherichia coli DH5α [gram. Neg.] Medium: MHB/37° C.
as §3, §4

[3] = test system: Micrococcus luteus DSM1790; assay: as above; details: Micrococcus luteus, DSM1790, 18 h, read-out: diameter of inhibition, Micrococcus luteus DSM1790
Experimental: as §1, §2
Micrococcus luteus DSM1790 [gram. Pos.] Medium: MHB/37° C.
as §3, §4

Bacillus subtilis DSM10 = assay: as above; details: Bacillus subtilis, DSM10, 18 h, read-out: diameter of inhibition, Bacillus subtilis DSM10
Experimental: as §1, §2
Bacillus subtilis DSM10 [gram. Pos.] Medium: MHB/30° C.
as §3, §4

[4] = test system: Escherichia coli albi-res (Montpellier); assay: as above; details: 18 h, read-out: diameter of inhibition, Escherichia coli albi-res (Montpellier)
Experimental: as §1, §2
Escherichia coli albi-res (Montpellier) [gram. Neg.] Medium: MHB/37° C.
as §3, §4

[5] = test system: Escherichia coli (ATCC 25922, 100-2-49 and 100-2-56); assay: EN-ISO standard test (ISO 20776-1), MIC
Experimental: (§5) Furthermore, compounds were tested against the following bacteria
(§6) according to EN-ISO standard (ISO 20776-1: 2006. Clinical laboratory testing and in vitro diagnostic test systems—Susceptibility testing of infectious agents and evaluation of performance of antimicrobial susceptibility test devices—Part 1:Reference method for testing the in vitro activity of antimicrobial agents against rapidly growing aerobic bacteria involved in infectious diseases; German version EN ISO 20776-1:2006. Beuth-Verlag, Berlin).

[6] = test system: Salmonella enteritidis (PEG-10-3-58); assay: EN-ISO standard test (ISO 20776-1), MIC
Experimental: as §5
Salmonella enteritidis (PEG-10-3-58),
as §6

[7] = test agar plates, active substance 1 mg/ml, more than 1 cm or more than 2 cm
[8] = test agar plates, active substance 1 mg/ml, "more than 1 cm and more than 2 cm" [sic]
[9] = test agar plates, active substance 1 mg/ml, more than 1 cm or more than 3.9 cm [sic]

Row | Compound | zone of inhibition at 1000 µg/mL [1] [mm] | zone of inhibition at 1000 µg/mL [2, 7] [mm] | zone of inhibition at 1000 µg/mL (Escherichia coli DH5α; [7]) [mm] | zone of inhibition at 1000 µg/mL [3, 8] [mm] | zone of inhibition at 1000 µg/mL (Bacillus subtilis DSM10; [9]) [mm] | zone of inhibition at 1000 µg/mL [4, 7] [mm] | further results
1 | COc1c(NC(=O)c2ccc(NC(=O)c3ccc(NC(=O)C(CC#N)NC(=O)c4ccc(NC(=O)/C(C)=C/c5ccccc5)cc4)cc3)c(OC)c2O)ccc(C(=O)O)c1O (centres unmarked) [Compound 2] | > 10 | > 10 | > 10 | > 10 | > 10 | > 10 | 
2 | COc1c(NC(=O)c2ccc(NC(=O)c3ccc(NC(=O)C(CC#N)NC(=O)c4ccc(NC(=O)/C=C/c5ccccc5)cc4)cc3)c(OC)c2O)ccc(C(=O)O)c1O (centres unmarked) [Compound 3] | > 10 | > 10 | > 10 | > 10 | > 10 | > 10 | 
3 | COc1c(NC(=O)c2ccc(NC(=O)c3ccc(NC(=O)C(CC#N)NC(=O)c4ccc(NC(=O)/C(C)=C/c5ccc(C(F)(F)F)cc5)cc4)cc3)c(OC)c2O)ccc(C(=O)O)c1O (centres unmarked) [Compound 4] | > 10 | > 10 | > 10 | > 10 | > 10 | > 10 | 
4 | COc1c(NC(=O)c2ccc(NC(=O)c3ccc(NC(=O)C(CC#N)NC(=O)c4ccc(NC(=O)c5ccc(O)cc5)cc4)cc3)c(OC)c2O)ccc(C(=O)O)c1O (centres unmarked) [Compound 7] | > 10 | > 10 |  |  | > 10 | > 10 | 
5 | COc1c(NC(=O)c2ccc(NC(=O)c3ccc(NC(=O)C(CC#N)NC(=O)c4ccc(NC(=O)c5ccc(N6CCOCC6)cc5)cc4)cc3)c(OC)c2O)ccc(C(=O)O)c1O (centres unmarked) [Compound 8] | > 10 |  | > 10 |  | > 10 | > 10 | 
6 | COc1c(NC(=O)c2ccc(NC(=O)c3ccc(NC(=O)C(CC#N)NC(=O)c4ccc(NC(=O)c5ccc(-c6ccccc6)cc5)cc4)cc3)c(OC)c2O)ccc(C(=O)O)c1O (centres unmarked) [Compound 9] | > 10 |  | > 10 | > 10 | > 10 | > 10 | 
7 | COc1ccc(C(=O)Nc2ccc(C(=O)NC(CC#N)C(=O)Nc3ccc(C(=O)Nc4ccc(C(=O)Nc5ccc(C(=O)O)c(O)c5OC)c(O)c4OC)cc3)cc2)cc1 (centres unmarked) [Compound 10] | > 10 | > 10 | > 10 | > 10 | > 10 | > 10 | 
8 | COc1c(NC(=O)c2ccc(NC(=O)c3ccc(NC(=O)C(CC#N)NC(=O)c4ccc(NC(=O)c5ccc(C#N)cc5)cc4)cc3)c(OC)c2O)ccc(C(=O)O)c1O (centres unmarked) [Compound 11] | > 10 | > 10 | > 10 | > 10 | > 10 | > 10 | 
9 | COc1c(NC(=O)c2ccc(NC(=O)c3ccc(NC(=O)C(CC#N)NC(=O)c4ccc(NC(=O)c5cccc(C(F)(F)F)c5)cc4)cc3)c(OC)c2O)ccc(C(=O)O)c1O (centres unmarked) [Compound 12] | > 10 | > 10 | > 10 | > 10 | > 10 | > 10 | 
10 | COc1c(NC(=O)c2ccc(NC(=O)c3ccc(NC(=O)C(CC#N)NC(=O)c4ccc(NC(=O)c5cccc(-c6ccccc6)c5)cc4)cc3)c(OC)c2O)ccc(C(=O)O)c1O (centres unmarked) [Compound 13] |  | > 10 | > 10 | > 10 | > 10 | > 10 | 
11 | COc1c(NC(=O)c2ccc(NC(=O)c3ccc(NC(=O)C(CC#N)NC(=O)c4ccc(NC(=O)c5ccc[nH]5)cc4)cc3)c(OC)c2O)ccc(C(=O)O)c1O (centres unmarked) [Compound 14] |  |  |  |  | > 10 | > 10 | 
12 | COc1c(NC(=O)c2ccc(NC(=O)c3ccc(NC(=O)C(CC#N)NC(=O)c4ccc(NC(=O)c5ccco5)cc4)cc3)c(OC)c2O)ccc(C(=O)O)c1O (centres unmarked) [Compound 15] | > 10 |  |  |  | > 10 | > 10 | 
13 | COc1c(NC(=O)c2ccc(NC(=O)c3ccc(NC(=O)C(CC#N)NC(=O)c4ccc(NC(=O)Cc5ccc(Cl)cc5)cc4)cc3)c(OC)c2O)ccc(C(=O)O)c1O (centres unmarked) [Compound 26] |  | > 10 |  |  | > 10 |  | zone of inhibition at 1000 µg/mL [4]: > 10 mm
14 | COc1c(NC(=O)c2ccc(NC(=O)c3ccc(NC(=O)C(CC#N)NC(=O)c4ccc(NC(=O)CCc5ccccn5)cc4)cc3)c(OC)c2O)ccc(C(=O)O)c1O (centres unmarked) [Compound 29] |  | > 10 |  |  | > 10 |  | zone of inhibition at 1000 µg/mL [4]: > 10 mm
15 | CCCCCC(=O)Nc1ccc(C(=O)NC(CC#N)C(=O)Nc2ccc(C(=O)Nc3ccc(C(=O)Nc4ccc(C(=O)O)c(O)c4OC)c(O)c3OC)cc2)cc1 (centres unmarked) [Compound 34] | > 10 | > 10 | > 10 |  | > 10 |  | zone of inhibition at 1000 µg/mL [4]: > 10 mm
16 | COc1c(NC(=O)c2ccc(NC(=O)c3ccc(NC(=O)C(CC#N)NC(=O)c4ccc(NC(=O)C5CC5)cc4)cc3)c(OC)c2O)ccc(C(=O)O)c1O (centres unmarked) [Compound 38] |  |  |  |  | > 10 | > 10 | 
17 | CCC(CC)C(=O)Nc1ccc(C(=O)NC(CC#N)C(=O)Nc2ccc(C(=O)Nc3ccc(C(=O)Nc4ccc(C(=O)O)c(O)c4OC)c(O)c3OC)cc2)cc1 (centres unmarked) [Compound 39] |  |  |  |  | > 10 | > 10 | 
18 | COc1c(NC(=O)c2ccc(NC(=O)c3ccc(NC(=O)C(CC#N)NC(=O)c4ccc(NC(=O)C(C)(C)C)cc4)cc3)c(OC)c2O)ccc(C(=O)O)c1O (centres unmarked) [Compound 40] |  |  |  |  | > 10 | > 10 | 
19 | COc1c(NC(=O)c2ccc(NC(=O)c3ccc(NC(=O)C(CC#N)NC(=O)c4ccc(NC(=O)C5CCCC5)cc4)cc3)c(OC)c2O)ccc(C(=O)O)c1O (centres unmarked) [Compound 41] |  |  |  |  | > 10 | > 10 | 
20 | COc1c(NC(=O)c2ccc(NC(=O)c3ccc(NC(=O)C(CC#N)NC(=O)c4ccc(NC(=O)Nc5ccccc5)cc4)cc3)c(OC)c2O)ccc(C(=O)O)c1O (centres unmarked) [Compound 43] |  | > 10 |  |  | > 10 |  | MIC values (minimal inhibitory concentration), in words [5]: good to very good; MIC values, in words [6]: good to very good; zone of inhibition at 1000 µg/mL [4]: > 10 mm
21 | COc1c(NC(=O)c2ccc(NC(=O)c3ccc(NC(=O)C(CC#N)NC(=O)c4ccc(NCc5ccc(-c6ccccc6)cc5)cc4)cc3)c(OC)c2O)ccc(C(=O)O)c1O (centres unmarked) [Compound 44] |  |  |  |  |  |  | zone of inhibition at 1000 µg/mL [2]: > 10 mm; zone of inhibition at 1000 µg/mL (Escherichia coli DH5α): > 10 mm; zone of inhibition at 1000 µg/mL [3]: > 10 mm; zone of inhibition at 1000 µg/mL (Bacillus subtilis DSM10): > 10 mm; zone of inhibition at 1000 µg/mL [4]: > 10 mm
22 | COc1ccc(S(=O)(=O)Nc2ccc(C(=O)NC(CC#N)C(=O)Nc3ccc(C(=O)Nc4ccc(C(=O)Nc5ccc(C(=O)O)c(O)c5OC)c(O)c4OC)cc3)cc2)cc1 (centres unmarked) [Compound 49] |  |  |  |  |  |  | zone of inhibition at 1000 µg/mL [4]: > 10 mm
